Assay [1] has as its target T1, 3-dehydroquinate dehydratase (Helicobacter pylori (strain ATCC 700392 / 26695) (Campylobacterpylori), UniProt Q48255).
T1 sequence (Q48255 whole entry): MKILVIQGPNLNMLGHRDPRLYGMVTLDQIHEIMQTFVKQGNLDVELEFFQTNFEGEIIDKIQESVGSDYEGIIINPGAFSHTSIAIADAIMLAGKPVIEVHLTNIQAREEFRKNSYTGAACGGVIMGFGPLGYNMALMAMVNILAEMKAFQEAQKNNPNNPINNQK
Put plainly: Inhibition of Helicobacter pylori DHQ2.

In assay [2] the target is T2, Bromodomain-containing protein 4 (Homo sapiens, UniProt O60885). Put plainly: Binding affinity to human BRD4 bromodomain-1.
Assay [3] addresses T2, Bromodomain-containing protein 4. Put plainly: Inhibition of H4K5/8/12/16-Ac-biotin binding to human BRD4 bromodomain-1 by Alpha screen assay. (In Alpha technology, singlet oxygen from a donor bead excites a nearby acceptor bead.)
Assay [4] has as its target CREB-binding protein (Homo sapiens, UniProt Q92793). Put plainly: Inhibition of H4K5/8/12/16-Ac-biotin binding to human CREBBP by Alpha screen assay.
For assay [5], the target named is Beta-secretase 1 (Homo sapiens, UniProt P56817). Briefly: Inhibition of human BACE-1 after 30 mins by FRET assay.
Beta-secretase 1, sequence (P56817 whole entry, the tested form may be a part): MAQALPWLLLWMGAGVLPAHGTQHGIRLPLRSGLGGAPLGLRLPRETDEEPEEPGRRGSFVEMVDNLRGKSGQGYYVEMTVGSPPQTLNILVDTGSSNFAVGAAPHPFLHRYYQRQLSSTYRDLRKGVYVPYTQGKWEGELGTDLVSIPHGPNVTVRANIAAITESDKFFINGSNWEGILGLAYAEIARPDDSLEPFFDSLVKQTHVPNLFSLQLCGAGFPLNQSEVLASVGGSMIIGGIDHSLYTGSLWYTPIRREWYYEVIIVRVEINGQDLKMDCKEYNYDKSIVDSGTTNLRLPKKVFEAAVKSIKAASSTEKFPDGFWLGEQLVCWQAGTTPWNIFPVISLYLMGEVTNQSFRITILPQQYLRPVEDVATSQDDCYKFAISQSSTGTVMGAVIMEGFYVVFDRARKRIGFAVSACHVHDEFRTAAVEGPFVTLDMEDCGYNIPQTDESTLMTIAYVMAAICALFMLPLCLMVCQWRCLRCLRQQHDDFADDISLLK
Assay [6] deals with T3, ATPase family AAA domain-containing protein 2 (Homo sapiens, UniProt Q6PL18).
T3 sequence (Q6PL18 whole entry): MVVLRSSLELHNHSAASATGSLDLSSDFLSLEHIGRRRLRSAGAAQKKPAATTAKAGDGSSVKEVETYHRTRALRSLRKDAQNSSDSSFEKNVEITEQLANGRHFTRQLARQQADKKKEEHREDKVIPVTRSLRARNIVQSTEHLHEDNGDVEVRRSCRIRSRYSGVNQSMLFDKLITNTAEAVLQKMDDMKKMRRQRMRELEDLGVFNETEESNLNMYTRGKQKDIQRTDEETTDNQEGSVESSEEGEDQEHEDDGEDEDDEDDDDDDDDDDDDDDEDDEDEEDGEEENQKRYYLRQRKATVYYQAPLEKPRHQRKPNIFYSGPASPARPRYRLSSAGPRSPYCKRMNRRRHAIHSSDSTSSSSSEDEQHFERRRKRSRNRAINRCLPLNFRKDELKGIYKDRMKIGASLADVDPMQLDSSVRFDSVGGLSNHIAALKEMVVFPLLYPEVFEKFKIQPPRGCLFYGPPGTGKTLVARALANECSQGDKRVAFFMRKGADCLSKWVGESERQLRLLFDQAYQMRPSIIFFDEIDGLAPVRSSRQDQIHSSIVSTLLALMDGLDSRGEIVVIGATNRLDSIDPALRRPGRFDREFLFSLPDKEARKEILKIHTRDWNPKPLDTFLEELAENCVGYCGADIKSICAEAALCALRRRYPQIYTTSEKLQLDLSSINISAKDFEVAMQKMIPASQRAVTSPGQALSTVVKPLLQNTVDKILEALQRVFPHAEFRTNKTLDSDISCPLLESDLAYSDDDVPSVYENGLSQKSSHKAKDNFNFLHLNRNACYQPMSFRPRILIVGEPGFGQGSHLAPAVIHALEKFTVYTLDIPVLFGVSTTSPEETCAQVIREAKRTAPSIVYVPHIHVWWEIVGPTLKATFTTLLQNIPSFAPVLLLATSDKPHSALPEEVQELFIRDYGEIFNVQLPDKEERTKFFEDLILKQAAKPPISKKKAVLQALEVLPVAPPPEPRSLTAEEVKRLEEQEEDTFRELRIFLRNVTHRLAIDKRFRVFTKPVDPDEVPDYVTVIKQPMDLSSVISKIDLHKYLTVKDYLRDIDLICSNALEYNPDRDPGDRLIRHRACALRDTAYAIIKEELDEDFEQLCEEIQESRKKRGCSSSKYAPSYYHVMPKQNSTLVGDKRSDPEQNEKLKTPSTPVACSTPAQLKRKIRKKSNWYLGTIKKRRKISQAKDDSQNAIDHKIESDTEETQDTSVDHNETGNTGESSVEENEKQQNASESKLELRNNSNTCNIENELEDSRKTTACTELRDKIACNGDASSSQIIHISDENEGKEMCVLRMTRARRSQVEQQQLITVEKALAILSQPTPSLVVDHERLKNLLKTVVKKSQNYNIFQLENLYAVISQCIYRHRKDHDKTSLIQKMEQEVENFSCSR
Put plainly: Inhibition of H4K5/8/12/16-Ac-biotin binding to human ATAD2 by Alpha screen assay.

Broadly, the pKi is −log10 of the Ki, conventionally taken in molar units. A high value points to a low Ki. Broadly, the pKd is the negative decadic logarithm of the Kd, by convention in mol/L. High values mean a low Kd, low ones a high Kd. By pIC50 is commonly meant the negative decadic logarithm of the IC50, by convention in mol/L. High values mean a low IC50, low ones a high IC50.

Molecules are shown by their SMILES. pIC50, pKd, pKi: −log10 of the molar value.

CREB-binding protein, sequence (Q92793 whole entry): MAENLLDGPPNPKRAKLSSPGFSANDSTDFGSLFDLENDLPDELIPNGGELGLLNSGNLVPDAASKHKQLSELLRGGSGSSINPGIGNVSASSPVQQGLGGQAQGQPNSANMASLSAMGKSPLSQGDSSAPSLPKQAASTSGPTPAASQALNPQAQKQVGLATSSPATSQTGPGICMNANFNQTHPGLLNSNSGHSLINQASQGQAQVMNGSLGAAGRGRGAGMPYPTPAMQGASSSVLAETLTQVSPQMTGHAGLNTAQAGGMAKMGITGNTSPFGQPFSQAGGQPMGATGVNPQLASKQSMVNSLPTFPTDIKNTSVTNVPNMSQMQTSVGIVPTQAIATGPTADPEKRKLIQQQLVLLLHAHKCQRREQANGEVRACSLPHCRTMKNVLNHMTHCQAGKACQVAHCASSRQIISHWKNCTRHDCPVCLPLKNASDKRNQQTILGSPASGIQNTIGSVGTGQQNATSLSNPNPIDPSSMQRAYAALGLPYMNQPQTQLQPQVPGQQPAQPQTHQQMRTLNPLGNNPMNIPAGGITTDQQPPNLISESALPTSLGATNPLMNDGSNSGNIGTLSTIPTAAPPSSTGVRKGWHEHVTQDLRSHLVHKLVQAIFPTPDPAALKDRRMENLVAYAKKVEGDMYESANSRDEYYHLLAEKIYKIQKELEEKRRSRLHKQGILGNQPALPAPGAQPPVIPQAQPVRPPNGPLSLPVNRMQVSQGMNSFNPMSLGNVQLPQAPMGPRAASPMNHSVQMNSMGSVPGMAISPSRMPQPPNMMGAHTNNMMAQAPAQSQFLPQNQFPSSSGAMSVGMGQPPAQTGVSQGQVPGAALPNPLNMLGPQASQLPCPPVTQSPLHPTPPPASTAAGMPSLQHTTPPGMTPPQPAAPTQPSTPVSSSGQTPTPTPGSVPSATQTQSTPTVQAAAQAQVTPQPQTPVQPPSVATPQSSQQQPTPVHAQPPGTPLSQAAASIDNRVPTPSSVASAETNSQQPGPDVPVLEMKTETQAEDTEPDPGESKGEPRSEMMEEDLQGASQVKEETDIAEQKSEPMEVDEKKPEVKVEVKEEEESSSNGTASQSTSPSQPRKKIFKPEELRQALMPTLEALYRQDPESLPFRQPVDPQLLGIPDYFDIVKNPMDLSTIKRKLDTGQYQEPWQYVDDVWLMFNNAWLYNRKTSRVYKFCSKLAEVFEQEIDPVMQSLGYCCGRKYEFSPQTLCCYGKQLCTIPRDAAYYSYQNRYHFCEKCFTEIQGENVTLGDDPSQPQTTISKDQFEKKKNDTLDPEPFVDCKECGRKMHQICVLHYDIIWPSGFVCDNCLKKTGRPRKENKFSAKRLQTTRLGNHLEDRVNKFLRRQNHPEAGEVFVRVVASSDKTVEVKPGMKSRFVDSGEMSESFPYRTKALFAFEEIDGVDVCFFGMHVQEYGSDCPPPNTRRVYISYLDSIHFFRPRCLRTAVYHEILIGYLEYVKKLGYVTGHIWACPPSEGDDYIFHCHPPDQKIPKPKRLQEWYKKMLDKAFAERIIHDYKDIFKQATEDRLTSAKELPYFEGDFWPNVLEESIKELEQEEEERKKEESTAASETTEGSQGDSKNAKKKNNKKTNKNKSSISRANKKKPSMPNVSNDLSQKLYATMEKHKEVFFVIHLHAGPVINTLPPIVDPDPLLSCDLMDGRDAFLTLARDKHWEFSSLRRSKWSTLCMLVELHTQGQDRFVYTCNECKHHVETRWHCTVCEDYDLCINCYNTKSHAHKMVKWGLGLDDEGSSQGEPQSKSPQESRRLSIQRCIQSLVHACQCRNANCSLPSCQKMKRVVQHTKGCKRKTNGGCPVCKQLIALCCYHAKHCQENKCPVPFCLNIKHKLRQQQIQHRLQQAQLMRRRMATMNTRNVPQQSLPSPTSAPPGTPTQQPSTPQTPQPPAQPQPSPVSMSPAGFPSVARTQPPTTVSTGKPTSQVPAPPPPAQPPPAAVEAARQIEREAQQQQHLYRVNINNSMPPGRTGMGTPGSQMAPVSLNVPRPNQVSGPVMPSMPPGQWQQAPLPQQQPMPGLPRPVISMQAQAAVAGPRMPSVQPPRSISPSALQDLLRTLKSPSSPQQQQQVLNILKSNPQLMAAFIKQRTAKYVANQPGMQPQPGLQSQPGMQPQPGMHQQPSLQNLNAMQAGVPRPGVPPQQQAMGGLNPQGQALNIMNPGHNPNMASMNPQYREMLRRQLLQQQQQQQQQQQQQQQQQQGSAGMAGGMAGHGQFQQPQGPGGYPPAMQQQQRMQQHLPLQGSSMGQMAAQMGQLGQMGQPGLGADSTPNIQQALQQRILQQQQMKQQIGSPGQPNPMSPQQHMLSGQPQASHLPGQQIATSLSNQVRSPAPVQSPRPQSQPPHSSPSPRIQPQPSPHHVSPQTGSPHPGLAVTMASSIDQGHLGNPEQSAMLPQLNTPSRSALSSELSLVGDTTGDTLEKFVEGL

In assay [1], `CC(C)[C@H](NC(=O)CCCn1c(=O)[nH]c2ccccc2c1=O)C(=O)O` had a pKi of 4.72.

In assay [2], `CC(=O)N(C)c1cccc(-c2ccc3nnc(C)n3n2)c1` showed a pKd of 5.15.

As for `COc1cc(/C=C2\SC(=O)N=C2N)ccc1O`, the pIC50 in assay [3] is 4.66.

As to `O=C1CNCC(C(=O)NCCn2nc(-c3ccccc3)ccc2=O)N1` (stereo unspecified), the pIC50 in assay [4] is 4.26.

`O=C(O)c1cc(-c2ccc(/C=N/Nc3nc(Nc4ccc(F)cc4)nc(N4CCOCC4)n3)o2)ccc1Cl`: in assay [5], the pIC50 was 5.15.

For the compound `Cc1ccc(OCCCC(=O)Nc2nc(C)c(C)s2)cc1`, in assay [6], the pIC50 is 4.64.
